The values below come from patent US20120309734A1, “COMBRETASTATIN DERIVATIVES AND USES THEREFOR” (priority 2009, published 2012).

The subject of one series is HL-60-MDR(PGP). As to the kind of experiment: Alamar Blue cell viability assay. The class given is cell-based, human.
The test system of another series is A2780-parental. Briefly: Alamar Blue cell viability assay. The class given is cell-based. The note with it: 72 h.
For the next series, the target named is T1, p-glycoprotein (Homo sapiens, UniProt P08183).
T1 construct: HL-60-MDR (overexpress p-glycoprotein); endogenous in cells; host or cells: HL-60-MDR, A2780-ADR
As to the kind of experiment: Anti-proliferative effects in multi-drug resistant cells, conclusion on efflux. In kind it is cell-based. The conditions noted are these: concluded from resistance factors.

A further series concerns HUVEC cells. As to the kind of experiment: HUVEC DNA content by flow cytometry (PI). The class given is cell-based, human. The conditions noted are these: 24 h. As to the method:
FIG. 8 illustrates the anti-proliferative response of endothelial cells to compound 4. HUVEC cells were treated with vehicle (0.5% (v/v) ethanol) or the indicated concentrations of 4 for 24 h and fixed by a drop-wise addition of ice-cold ethanol. Cells were then stained with 0.15 mg/ml propidium iodide (PI) and their DNA content assessed using a FACSCalibur flow cytometer (Becton Dickinson, San Jose, Calif., USA). Data collections (10,000 events per sample) were gated to exclude cell debris and cell aggregates. Analysis of data was performed using the CellQuest software (Becton Dickinson). PI fluorescence was proportional to the amount of DNA present in each entity and therefore indicated the stage of the cell cycle. Cells in the subG0/G1 phase (<2N DNA) were deemed apoptotic, while cells with 4N quantities of DNA were considered to be in the G2/M phase of the cell cycle. Values represent the mean±S.E.M for three independent experiments.

Series [1] concerns HUVECs. Briefly: In vitro tubule formation on matrigel. The class given is cell-based, human. The note with it: 50 nM, 6 h. As for the experimental part:
FIG. 10 depicts the effect of compound 4 on in vitro tubule formation. HUVECs (1.5×10^6 cells/well) were grown on matrigel-coated 6-well plates for 6 h in the presence of vehicle (0.5% (v/v) ethanol) or 50 nM compound 4. […] The pictures shown in FIG. 10 are representative of three independent experiments. HUVECs seeded onto Matrigel in the presence of vehicle (0.5% (v/v) ethanol) underwent alignment into the capillary-like structures.

Series [2] relates to HUVECs. As to the kind of experiment: VEGF-stimulated transwell migration assay. In kind it is cell-based. The note with it: Homo sapiens, HUVEC; 50 nM, 6 h, 10 ng/ml VEGF. As for the experimental part: This modified transwell migration assay consisted of an upper and a lower chamber separated by a membrane. Migration of HUVECs from the upper to the lower chamber was stimulated by addition of VEGF to the lower chamber. The effect of compound 4 on this migration was determined by its addition along with VEGF into the lower chamber. Migration was expressed as a percentage of migration in control chambers treated with the vehicle (100%). HUVECs 10,000 cells in […] medium were seeded onto fibronectin-coated […] transwell inserts in 24-well plates containing medium. HUVEC migration was stimulated by the addition of 10 ng/ml VEGF to the lower wells. Vehicle (0.5% (v/v) ethanol) or compound 4 (50 nM) were also added to the lower wells. After 6 h, the upper surfaces of the inserts were swabbed to remove non-migrated cells. Filters containing the migrated cells were stained with 0.5% toulidine blue 0 and 0.5% sodium tetraborate. The cells were solubilised in 0.2% (w/v) SDS in 20 mM Tris-HCl, pH 7.7 and staining quantified as absorbance at 650 nm. […] P-values were determined using a two-tailed Student's paired t-test. A value of P<0.05 was considered to be significant.

For series [3], the system named is breast carcinoma MDA-MB-231 cells. Briefly: Transwell migration assay. The class given is cell-based, human. The note with it: 50 nM, 6 h. As to the method:
FIG. 12 illustrates the migration of breast carcinoma MDA-MB-231 cells across transwell filters in the presence of vehicle (0.5% (v/v) ethanol) or 50 nM compound 4. Migration was expressed as a percentage of migration of vehicle-treated cells (100%). MDA-MB-231 cells (cultured as described supra) were seeded at a density of 2.5×10^4 cells/well onto 24-well Falcon migration inserts (8 μm pore size) in serum-free medium. Inserts were placed into Falcon companion plates containing 20% FBS and either vehicle (0.5% (v/v) ethanol) or 50 nM compound 4 and incubated for 6 h. The upper surfaces of the inserts were swabbed to remove non-migrated cells. Migrated cells on the underside of the membrane were fixed in methanol, stained with Mayers Hematoxylin, dehydrated in methanol and mounted on a glass slide. The number of cells in 5 fields at 10× magnification was counted. […] P-values were determined using a two-tailed Student's paired t-test. A value of P<0.05 was considered to be significant. Incubation for 6 h with compound 4 prevented MDA-MB-231 cell migration by 95.7% (***P<0.0001).

The test system of the next series is SNB-75. Briefly: NCI60 cell line screen. In kind it is cell-based. The conditions noted are these: Homo sapiens, CNS.
In another series the test system is HL-60-BCRP. As to the kind of experiment: Alamar Blue cell viability assay.
The subject of another series is A2780-ADR (PGP). Briefly: Alamar Blue cell viability assay.
The test system of a further series is MOLT-4. Briefly: NCI60 cell line screen. The note with it: Homo sapiens.
The subject of a further series is MALME-3M. As to the kind of experiment: NCI60 cell line screen. The conditions noted are these: Homo sapiens.

T1 sequence (P08183 whole entry): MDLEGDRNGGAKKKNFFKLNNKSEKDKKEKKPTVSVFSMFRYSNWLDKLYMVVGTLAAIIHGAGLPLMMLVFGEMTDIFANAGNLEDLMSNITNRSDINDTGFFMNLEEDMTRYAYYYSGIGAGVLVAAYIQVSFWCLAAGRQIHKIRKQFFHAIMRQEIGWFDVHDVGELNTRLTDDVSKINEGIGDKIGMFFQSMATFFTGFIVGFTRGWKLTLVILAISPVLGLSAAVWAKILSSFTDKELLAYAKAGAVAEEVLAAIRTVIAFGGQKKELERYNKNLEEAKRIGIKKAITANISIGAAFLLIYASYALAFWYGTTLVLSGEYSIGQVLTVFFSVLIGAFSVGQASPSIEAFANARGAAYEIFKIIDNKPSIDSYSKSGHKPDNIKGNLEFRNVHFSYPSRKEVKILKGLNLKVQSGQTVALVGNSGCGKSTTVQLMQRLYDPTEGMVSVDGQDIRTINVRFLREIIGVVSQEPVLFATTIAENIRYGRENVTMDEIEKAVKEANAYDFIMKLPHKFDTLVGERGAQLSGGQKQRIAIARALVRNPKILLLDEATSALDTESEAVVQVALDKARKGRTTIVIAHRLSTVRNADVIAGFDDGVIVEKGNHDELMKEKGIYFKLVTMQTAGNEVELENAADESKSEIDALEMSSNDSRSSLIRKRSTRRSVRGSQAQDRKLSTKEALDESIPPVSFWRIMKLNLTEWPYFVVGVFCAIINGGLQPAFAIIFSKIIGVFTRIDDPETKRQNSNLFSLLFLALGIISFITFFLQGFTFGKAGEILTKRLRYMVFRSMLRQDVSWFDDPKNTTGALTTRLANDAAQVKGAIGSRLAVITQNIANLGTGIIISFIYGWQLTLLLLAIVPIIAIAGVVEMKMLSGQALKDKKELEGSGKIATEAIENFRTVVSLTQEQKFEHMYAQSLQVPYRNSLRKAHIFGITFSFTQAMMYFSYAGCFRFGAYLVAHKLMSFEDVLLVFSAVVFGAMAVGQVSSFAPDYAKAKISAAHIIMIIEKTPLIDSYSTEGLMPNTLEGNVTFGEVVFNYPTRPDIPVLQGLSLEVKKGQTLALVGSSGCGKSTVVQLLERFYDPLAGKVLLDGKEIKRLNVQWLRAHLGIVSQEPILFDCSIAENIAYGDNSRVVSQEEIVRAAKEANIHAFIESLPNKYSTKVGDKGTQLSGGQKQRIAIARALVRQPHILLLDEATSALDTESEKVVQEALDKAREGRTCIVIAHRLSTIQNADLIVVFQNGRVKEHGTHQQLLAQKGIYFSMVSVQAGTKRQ
Description for A2780-ADR (PGP): (§1) Three drug resistant cell lines and respective parental cell lines were assessed. […] Western blot analysis confirmed the overexpression of p-glycoprotein and BCRP in respective cell lines.
(§2) Cells were exposed to multiple concentrations of the indicated compound for 72 h. Cell viability was assessed using the Alamar blue assay and respective IC50 values were calculated. The resistance factor (RF) was calculated by dividing the IC50 of the resistant cell line/IC50 of the parental cell line.
(§3) All cells were cultured in RPMI-1640 Glutamax medium supplemented with 10% FCS media, 100 units/ml penicillin and 100 μg/mIstreptomycin. Cells were maintained at 37° C. in 5% CO2 in a humidified incubator.
(§4) The reduction of Alamar Blue is proportional to the number of viable cells. Cells (200 μl) were plated in triplicate in a 96-well plates (K562, 100,000/ml; HL-60, 300,000/ml; A-2780 50,000/ml). A-2780 cells were plated 24 h prior to treatment. Suspension cells were plated in the log phase of growth and treated immediately. The cells were then treated with either medium alone, vehicle (1% ethanol v/v or 0.1% DMSO v/v) or with a range of concentrations of drug [0.001-10 μM]. After 72 h, Alamar Blue was added to each well (10% of final volume) and fluorescence was read using a 96-well fluorometer with excitation at 530 nm and emission of 590 nm. The blank solution consisted of medium and Alamar Blue and the blank solution was used to calibrate the spectrophotometer to zero absorbance. The relative cell viability (%) related to control wells and was calculated by [A]test/[A]control×100 where [A]test is the absorbance of the drug treated cells and [A]control the absorbance of the vehicle control treated cells. Dose response curves were plotted and IC50 values (concentration of drug resulting in 50% reduction in cell survival) were obtained using the commercial software package Prism (GraphPad Software, Inc., La Jolla, USA). Experiments were performed in triplicate on at least three separate occasions.
Description for A2780-parental: as §2
A2780-parental and A2780-ADR resistant cells were provided by the Beatson Institute of Cancer Research, Glasgow. […] All cells were cultured in RPMI-1640 Glutamax medium supplemented with 10% FCS media, 100 units/ml penicillin and 100 μg/mIstreptomycin. Cells were maintained at 37° C. in 5% CO2 in a humidified incubator.
as §4
Description for HL-60-BCRP: as §1, §2, §3, §4
Description for HL-60-MDR(PGP): as §1, §2, §3, §4
Description for p-glycoprotein: as §1, §2

For the molecule `COc1ccc(C2C(c3ccccc3)C(=O)N2c2cc(OC)c(OC)c(OC)c2)cc1O` (stereo not drawn) [Compound 4, 4-(3-Hydroxy-4-methoxyphenyl)-3-phenyl-1-(3,4,5-trimethoxyphenyl)-azetidin-2-one], the IC50 was 18.2 nM in the series with HL-60-MDR(PGP) (Homo sapiens, HL60/MDR, HL-60-MDR(PGP), 72 h, Alamar blue, read-out: IC50); 23.3 nM with A2780-parental; 25.3 nM with HL-60-BCRP (Homo sapiens, 72 h); 10.4 nM in the series on A2780-ADR (PGP) (A2780 ADR, 72 h). Further, the RF was found to be 1.03 with HL-60-MDR(PGP) (IC50 HL-60-MDR(PGP) / IC50 HL-60 parental), 1.4 with HL-60-BCRP (IC50 HL-60-BCRP / IC50 HL-60 parental) and 0.5 with A2780-ADR (PGP) (IC50 A2780-ADR (PGP) / IC50 A2780-parental). Also, on p-glycoprotein, the “substrate for the p-glycoprotein” value is given as “poor substrates for the p-glycoprotein”. For the same molecule, the “effect on levels of apoptosis or G2/M” value in the series with HUVEC cells (1 nM) is on record as “not sufficient to affect the levels of apoptosis or G2/M”. Besides, the “apoptosis (subG0/G1)” value is recorded as 35.1% in the series on HUVEC cells (10 nM), 31.4% in the series on HUVEC cells (50 nM) and 28.0% with HUVEC cells (100 nM). Besides, the results for the “cells in the G2/M phase” value in the series on HUVEC cells (10 nM), with HUVEC cells (50 nM) and with HUVEC cells (100 nM) were 36.9%, 37.0% and 39.8%, respectively. In addition, in the series with HUVECs [1], the “in vitro tubule formation” value is “prevented spontaneous in vitro tubule formation”. This molecule also displayed an inhibition at 0.05 µM in the series with HUVECs [2] of 74%. Also, in series [3], the “prevention of MDA-MB-231 cell migration” value stood at 95.7%. For the same molecule, the GI50 in the series on SNB-75 stood at 47 nM.
On to `COc1ccc(C2C(c3ccccc3)C(=O)N2c2cc(OC)c(OC)c(OC)c2)cc1` (stereo not drawn) [Compound 8, 4-(4-Methoxy-phenyl)-3-phenyl-1-(3,4,5-trimethoxy-phenyl)-azetidin-2-one], for which the GI50 is 31.6 nM in the series on MOLT-4 and greater than 100000 nM in the series with MALME-3M.
